From patent publication US20220324835A1 (Nurix Therapeutics, Inc., priority 2018, published 2022)

Key:
Cbl-b [1] = target: T1, Cbl-b (Homo sapiens, UniProt Q13191); assay: Cbl-b inhibition assay (Cbl-b activity assay, FRET, Biological Example 1; 100 mM NaCl, 60 nM Src kinase); assay type: biochemical; details: upper bound stated in text lists; read-out: IC50 values in the Cbl-b inhibition assay of Biological Example 1
Method in brief: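 TR-FRET assay using N-terminal biotinylated Avi-tagged Cbl-b bound to streptavidin-terbium, Src kinase for Cbl-b phosphorylation, and UbcH5B irreversibly conjugated to Bodipy-Fluorescein-ubiquitin. Phosphorylated Cbl-b binds UbcH5B-Ub, bringing the fluorophores together; inhibition is read as loss of FRET signal.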

T-cells = assay: In vivo activity: CD25 expression on CD4+ or CD8+ T-cells of mice stimulated with anti-CD3 antibody; details: 2 μg anti-CD3 antibody, 24 hours
Method: A method of determining the pharmacodynamic profile of Cbl-b inhibitors was performed by dosing strains of mice with competent immune systems such as C57BL/6 or BALB/c with a Cbl-b inhibitor. The Cbl-b inhibitor was dissolved in a suitable formulation and administered by one of various routes such as intravenous (IV), intraperitoneal (IP), subcutaneous (SC), or oral (PO), at a suitable dose level and frequency (e.g. twice per day BID or thrice per day TID) as informed by prior pharmacokinetic and tolerability studies. Following administration of the Cbl-b inhibitor, T-cells and indirectly other immune cells (e.g. via cytokine production) were stimulated in vivo by administration of an anti-CD3 antibody or antigen-binding fragment thereof in PBS at defined amounts such as 2 μg or 10 μg per animal by routes such as IV or IP (See Hirsh et al., J. Immunol., 1989; Ferran, et al., Eur. J. Immunol., 1990). Additional study control arms included groups of mice treated with a vehicle formulation alone (i.e., formulation without the Cbl-b inhibitor and anti-CD3 antibody), a formulation containing the Cbl-b inhibitor alone, a formulation containing the anti-CD3 antibody alone, PBS alone, or combinations of these agents. The level of immune activation was then assessed by analysis of plasma cytokine levels and/or expression of activation markers on immune cells (e.g. T-cells). Blood or lymphoid organs (e.g. spleen) were collected at defined time points (e.g. 8 hours or 24 hours). Blood samples were processed to collect plasma for determination of cytokine levels using standard methods known in the art. Cytokines measured included IL-2, IFNγ, and TNFα. Additional blood samples and lymphoid tissues were processed for flow cytometric analysis of immune cells (e.g. T-cells) using standard methods to determine expression of cell type-specific markers and activation markers such as CD25 and/or CD69. Augmentation of immune stimulation by Cbl-b inhibitor administration was assessed by comparing the relative concentrations of cytokines in plasma, or the expression levels of activation markers on immune cells between appropriate groups (e.g. mice treated with Cbl-b inhibitor and 2 μg anti-CD3 antibody versus mice treated with vehicle and 2 μg anti-CD3 antibody).
Cbl-b inhibitors were tested to determine their ability to induce or enhance the level of cytokines (e.g. IL-2, IFNγ, and TNFα) in blood obtained from treated mice stimulated with an anti-CD3 antibody, which is indicative of modulation of the immune response. Cbl-b inhibitors were also tested to determine their ability to induce or enhance the expression of cell surface markers on T-cells (e.g. CD25 and/or CD69) isolated from treated mice stimulated with an anti-CD3 antibody, which is indicative of modulation of the immune response.
Readouts were reported as fold change over baseline. The fold change was calculated from the mean value of mice treated with Cbl-b inhibitor and 2 μg anti-CD3 antibody, with the baseline defined as the mean value of mice treated with vehicle and 2 μg anti-CD3 antibody. Increases in the percentage of cells with surface expression of CD25 on CD4+ T-cells or CD8+ T-cells greater than 1.5-fold over baseline at 24 hours were considered a positive response. Increases in the plasma concentration of IL-2, IFNγ, and TNFα greater than 1.5-fold over baseline at 8 hours post-stimulation were also considered a positive response (Table 8). Fold changes were ranked into bins according to their readouts as follows: A indicates >2.50, B indicates 2.01-2.50, C indicates 1.51-2.00, D indicates 1.00-1.50, and E indicates <1.00.

Cbl-b [2] = target: T1, Cbl-b; assay: Cbl-b activity assay (Cbl-b inhibition assay), TR-FRET of Cbl-b interaction with UbcH5B-Ub; assay type: biochemical; details: assay buffer with 100 mM NaCl, 60 nM Src kinase; read-out: Cbl-b activity IC50
Method in brief: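 TR-FRET readout of Cbl-b binding to Bodipy-fluorescein N-terminally labeled Ub conjugated to UbcH5B C85K, measured with compound present. After compound incubation, 60 nM Src kinase with 1 mM ATP and 5 mM MgCl2 (final) was added for 1.5 h, then a further 1 h incubation; asterisked values used 50 mM NaCl buffer and 30 nM Src.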

Cbl-b (residues 36-427) = Cbl-b (residues 36-427) (Homo sapiens, UniProt Q13191); assay: Cbl-b binding assay (SPR, Biacore T200); details: 20° C., 1:1 binding model
Method in brief: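 Affinities derived from global 1:1 steady-state or kinetic fits of double-referenced, solvent-corrected SPR data, 20 °C, NeutrAvidin-capture chip. Compound series (top 100 or 50 μM, 8–10 points) injected 50 s, 90–180 s dissociation. Asterisked values used 50 mM instead of 100 mM NaCl and 30 nM Src kinase.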

T-cell [3] = assay: IL-2 secretion from T-cells co-stimulated with anti-CD3 and anti-CD28 antibody (Biological Example 2); assay type: cell-based, human; details: Homo sapiens, T-cell, primary human total T-cells, baseline = anti-CD3/anti-CD28 stimulated cells without inhibitor, read-out: IL-2 secretion, Anti-CD3/Anti-CD28 stimulation, fold change over baseline; for fold induction at 0.3 µM: 0.3 μM compound; for fold induction at 1 µM: 1 μM compound; for fold induction at 4 µM: 4 μM compound
Method in brief: (§1)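 No assay protocol given; T-cells stimulated with anti-CD3 alone or anti-CD3 plus anti-CD28, with or without Cbl-b inhibitor. Activation read as IL-2 secretion or CD25 surface staining, expressed as fold over baseline from uninhibited cells […].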

T-cell [4] = assay: CD25 cell surface staining on T-cells co-stimulated with anti-CD3 and anti-CD28 antibody (Biological Example 2); assay type: cell-based, human; details: Homo sapiens, T-cell, primary human total T-cells, baseline = anti-CD3/anti-CD28 stimulated cells without inhibitor, read-out: CD25 staining, Anti-CD3/Anti-CD28 stimulation, fold change over baseline; for fold induction at 0.3 µM: 0.3 μM compound; for fold induction at 1 µM: 1 μM compound; for fold induction at 4 µM: 4 μM compound
Method in brief: as §1

T-cell [5] = assay: IL-2 secretion from T-cells stimulated with anti-CD3 antibody alone (Biological Example 2); assay type: cell-based; details: primary human total T-cells, read-out: IL-2 secretion, Anti-CD3 stimulation, fold change over baseline; for fold induction at 1 µM: 1 μM compound; for fold induction at 8 µM: 8 μM compound
T-cell [6] = assay: CD25 cell surface staining on T-cells stimulated with anti-CD3 antibody alone (Biological Example 2); assay type: cell-based; details: primary human total T-cells, baseline = anti-CD3/anti-CD28 stimulated cells without inhibitor, read-out: CD25 staining, Anti-CD3 stimulation, fold change over baseline; for fold induction at 1 µM: 1 μM compound; for fold induction at 8 µM: 8 μM compound

T1 sequence (Q13191 36-427): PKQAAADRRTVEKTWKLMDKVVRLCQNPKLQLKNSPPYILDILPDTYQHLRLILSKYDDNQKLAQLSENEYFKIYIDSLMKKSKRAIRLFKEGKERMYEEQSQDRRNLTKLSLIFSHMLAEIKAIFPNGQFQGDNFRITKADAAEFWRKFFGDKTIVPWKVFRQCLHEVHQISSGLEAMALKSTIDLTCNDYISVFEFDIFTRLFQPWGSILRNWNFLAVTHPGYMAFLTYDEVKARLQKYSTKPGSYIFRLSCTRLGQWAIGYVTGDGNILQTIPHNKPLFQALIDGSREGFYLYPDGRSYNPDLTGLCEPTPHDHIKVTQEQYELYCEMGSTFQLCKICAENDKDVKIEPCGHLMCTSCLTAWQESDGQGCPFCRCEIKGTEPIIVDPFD
Cbl-b (residues 36-427), sequence (Q13191 36-427): as above

Compound | IC50 (Cbl-b [1]) [nM] | CD4+ T-cell % CD25+ (T-cells; 135 mpk PO BID) | CD8+ T-cell % CD25+ (T-cells; 135 mpk PO BID) | CD4+ T-cell % CD25+ (T-cells; 180 mpk PO BID) | CD8+ T-cell % CD25+ (T-cells; 180 mpk PO BID) | IC50 (Cbl-b [2]) [nM] | Kd (Cbl-b (residues 36-427)) [nM] | fold induction at 0.3 µM (T-cell [3]) | fold induction at 1 µM (T-cell [3]) | fold induction at 4 µM (T-cell [3]) | fold induction at 0.3 µM (T-cell [4]) | fold induction at 1 µM (T-cell [4]) | fold induction at 4 µM (T-cell [4]) | fold induction at 1 µM (T-cell [5]) | fold induction at 8 µM (T-cell [5]) | fold induction at 1 µM (T-cell [6]) | fold induction at 8 µM (T-cell [6])
C[C@@H](Cc1nncn1C)c1cccc(N2Cc3c(cccc3C(F)(F)F)C2=O)c1 [Compound 255b] | ≤ 10000 | E (E indicates <1.00) | E (E indicates <1.00) | E (E indicates <1.00) | E (E indicates <1.00) | 1000 to 3000 | 3000 to 10000 | – | – | – | – | – | – | – | – | – | –
Cn1cnnc1CC1(c2cccc(N3Cc4c(cc(CN5CCC(F)CC5)cc4C(F)(F)F)C3=O)c2)COC1 [Compound 489, 6-[(4-fluoropiperidin-1-yl)methyl]-2-(3-{3-[(4-methyl-1,2,4-triazol-3-yl)methyl]oxetan-3-yl}phenyl)-4-(trifluoromethyl)-3H-isoindol-1-one] | ≤ 100 | C (C indicates 1.51-2.00) | D (D indicates 1.00-1.50) | – | – | < 100 | – | – | – | – | – | – | – | – | – | – | –
C[C@H](c1cc2c(c(C(F)(F)F)c1)CN(c1cccc(C3(Cc4nncn4C)COC3)c1)C2=O)N1CCC(F)CC1 [Example 622b, (R)-6-(1-(4-fluoropiperidin-1-yl)ethyl)-2-(3-(3-((4-methyl-4H-1,2,4-triazol-3-yl)methyl)oxetan-3-yl)phenyl)-4-(trifluoromethyl)isoindolin-1-one] | – | B (B indicates 2.01-2.50) | D (D indicates 1.00-1.50) | – | – | – | – | – | – | – | – | – | – | – | – | – | –
C[C@@H](c1cc2c(c(C(F)(F)F)c1)CN(c1cccc(C3(Cc4nncn4C)COC3)c1)C2=O)N1CCC(F)CC1 [Example 622a, (S)-6-(1-(4-fluoropiperidin-1-yl)ethyl)-2-(3-(3-((4-methyl-4H-1,2,4-triazol-3-yl)methyl)oxetan-3-yl)phenyl)-4-(trifluoromethyl)isoindolin-1-one] | – | B (B indicates 2.01-2.50) | D (D indicates 1.00-1.50) | – | – | – | – | – | – | – | – | – | – | – | – | – | –
Cn1cnnc1C(F)(F)[C@](C)(F)c1cccc(N2Cc3c(cc(CN4CC(F)C4)cc3C(F)(F)F)C2=O)c1 [Compound 451, (R)-6-((3-fluoroazetidin-1-yl)methyl)-2-(3-(1,1,2-trifluoro-1-(4-methyl-4H-1,2,4-triazol-3-yl)propan-2-yl)phenyl)-4-(trifluoromethyl)isoindolin-1-one] | ≤ 300 | – | – | – | – | 100 to 300 | < 100 | 1.01 to 2.5 | 5 to 7.5 | > 7.5 | 1.01 to 1.3 | 1.01 to 1.3 | 1.31 to 1.5 | 0.101 to 0.15 | > 0.201 | 0.801 to 1 | > 1
C[C@@H]1[C@@H](c2nncn2C)[C@H]1c1cccc(N2Cc3c(cccc3C(F)(F)F)C2=O)c1 [Compound 375, 2-[3-[(1 S,2S,3R)-2-methyl-3-(4-methyl-4H-1,2,4-triazol-3-yl)cyclopropyl]phenyl]-4-(trifluoromethyl)-2,3-dihydro-1H-isoindol-1-one] | ≤ 100 | – | – | – | – | < 100 | < 100 | 2.51 to 5 | 5 to 7.5 | > 7.5 | 1.01 to 1.3 | 1.31 to 1.5 | 1.31 to 1.5 | > 0.201 | > 0.201 | > 1 | > 1
C[C@H](Cc1nncn1C)c1cccc(N2Cc3c(cc(CN4CC(F)(F)C4)cc3C(F)(F)F)C2=O)c1 [Compound 402, (R)-6-((3,3-difluoroazetidin-1-yl)methyl)-2-(3-(1-(4-methyl-4H-1,2,4-triazol-3-yl)propan-2-yl)phenyl)-4-(trifluoromethyl)isoindolin-1-one] | ≤ 100 | – | – | – | – | < 100 | < 100 | 5 to 7.5 | > 7.5 | > 7.5 | 1.01 to 1.3 | 1.31 to 1.5 | 1.31 to 1.5 | 0.151 to 0.2 | > 0.201 | > 1 | > 1
C[C@H](Cc1nncn1C)c1cccc(N2Cc3c(ccnc3C(F)(F)F)C2=O)c1 [Compound 371, (R)-2-(3-(1-(4-methyl-4H-1,2,4-triazol-3-yl)propan-2-yl)phenyl)-4-(trifluoromethyl)-2,3-dihydro-1H-pyrrolo[3,4-c]pyridin-1-one] | ≤ 300 | – | – | – | – | 100 to 300 | 301 to 1000 | 1.01 to 2.5 | 2.51 to 5 | 5 to 7.5 | 1.01 to 1.3 | 1.01 to 1.3 | 1.01 to 1.3 | 0.101 to 0.15 | > 0.201 | 0.801 to 1 | > 1
